Experimental data taken from patent publication US20230056994A1, “NECROPTOSIS MODULATORS, SCREENING METHODS AND PHARMACEUTICAL COMPOSITIONS” (NEURALIS SA, priority 2019, published 2023).
Entries after “also recorded” stand apart in the source; their conditions may differ.

Columns and labels:
[1] = system: phosphorylation state of MLKL in HT29 cells; experiment: Western blot of phospho-MLKL (Ser358) in HT29 cells, necroptosis induced by TNF-alpha and z-VAD-fmk; type: cell-based; details: then TNF a 10 ng/ml 20 hrs, z-VAD-fmk 10 μM, One-Way ANOVA
Procedure: (§1) MCF7 and HT29 cells were cultured in DMEM along with 10% FBS, 1% Penicillin-Streptomycin and 1% Glutamine. The cells were pre-treated with 0.1% DMSO or z-VAD-fmk (10 μM) to induce necroptosis (positive control). In order to evaluate the effect of candidate agents on the induced necroptosis, Necrostatin 1 (Nec-1 (10 μM)) or Estetrol (E4 (10^-7 M) was added to the cells for 1 hr and was further subjected to Tumor Necrosis Factor (TNF) a (10 ng/ml) treatment for 20 hrs. The cells were then washed, followed by isolation and quantification of the total protein. 20 μg of protein from each treatment group was used for SDS-PAGE separation (10% […] gel) and was then transferred to PVDF membrane via a transfer apparatus. Post transfer, the membranes were blocked with 5% milk and further washed with the wash buffer. The membranes were further incubated with anti-Phospho-MLKL (Ser358) Polyclonal Antibody; Cat No: PA5-105678 (Thermofisher Scientific) at a dilution of 1/1000. The membranes were then incubated with secondary antibody (anti-Rabbit IgG, HRP-linked antibody, Cell signaling, Cat No: 7074S) at a dilution of 1/1000 and visualized using Western Blot substrate (Western Lightning Plus-ECL, Perkin Elmer, NEL104001EA) as per manufacturer's protocols. The results are shown in FIGS. 6 and 7, respectively for MCF7 and HT29 cells.

[2] = system: phosphorylation state of MLKL in MCF7 cells; experiment: Western blot of phospho-MLKL (Ser358) in MCF7 cells, necroptosis induced by TNF-alpha and z-VAD-fmk; type: cell-based; details: then TNF a 10 ng/ml 20 hrs, z-VAD-fmk 10 μM, One-Way ANOVA
Procedure: as §1

[3] = E4 10^-7 M for 1 hr, listed as E4
[4] = Nec-1 10 μM for 1 hr, listed as Nec 1
[5] = Nec-1 10 μM for 1 hr, listed as Necrostatin 1

Row | Structure (SMILES) | reduction of MLKL phosphorylation versus TNF-alpha + z-VAD-fmk induced cells ([1]; E4 10^-7 M for 1 hr) | reduction of MLKL phosphorylation versus TNF-alpha + z-VAD-fmk induced cells [1, 3] | reduction of MLKL phosphorylation versus TNF-alpha + z-VAD-fmk induced cells ([2]; E4 10^-7 M for 1 hr) | reduction of MLKL phosphorylation versus TNF-alpha + z-VAD-fmk induced cells [2, 3] | reduction of MLKL phosphorylation versus TNF-alpha + z-VAD-fmk induced cells [1, 4] | reduction of MLKL phosphorylation versus TNF-alpha + z-VAD-fmk induced cells [1, 5] | reduction of MLKL phosphorylation versus TNF-alpha + z-VAD-fmk induced cells [2, 4] | reduction of MLKL phosphorylation versus TNF-alpha + z-VAD-fmk induced cells [2, 5]
1 | C[C@]12CC[C@@H]3c4ccc(O)cc4CC[C@H]3[C@@H]1[C@@H](O)[C@@H](O)[C@@H]2O [Estetrol] | decrease of phosphorylation of MLKL | statistically relevant (**p<0.01) | decrease of phosphorylation of MLKL | statistically relevant (**p<0.01) | – | – | – | –
2 | CN1C(=O)C(Cc2c[nH]c3ccccc23)NC1=S (centres unmarked) [Nec-1, Necrostatin-1] | – | – | – | – | statistically Non-Significant (NS) | decrease of phosphorylation of MLKL | statistically significant (*p<0.05); also recorded: statistically relevant (*p<0.05) | decrease of phosphorylation of MLKL
